Measured values published in US8765773B2, “Substituted hydroxamic acids and uses thereof” (Millennium Pharmaceuticals, Inc., priority 2010, dated 2014).

Molecular target: T1, purified human HDAC6 (Homo sapiens, UniProt Q9UBN7)
T1 construct: purchased BPS Bioscience 5006
T1 sequence (Q9UBN7 1-1215): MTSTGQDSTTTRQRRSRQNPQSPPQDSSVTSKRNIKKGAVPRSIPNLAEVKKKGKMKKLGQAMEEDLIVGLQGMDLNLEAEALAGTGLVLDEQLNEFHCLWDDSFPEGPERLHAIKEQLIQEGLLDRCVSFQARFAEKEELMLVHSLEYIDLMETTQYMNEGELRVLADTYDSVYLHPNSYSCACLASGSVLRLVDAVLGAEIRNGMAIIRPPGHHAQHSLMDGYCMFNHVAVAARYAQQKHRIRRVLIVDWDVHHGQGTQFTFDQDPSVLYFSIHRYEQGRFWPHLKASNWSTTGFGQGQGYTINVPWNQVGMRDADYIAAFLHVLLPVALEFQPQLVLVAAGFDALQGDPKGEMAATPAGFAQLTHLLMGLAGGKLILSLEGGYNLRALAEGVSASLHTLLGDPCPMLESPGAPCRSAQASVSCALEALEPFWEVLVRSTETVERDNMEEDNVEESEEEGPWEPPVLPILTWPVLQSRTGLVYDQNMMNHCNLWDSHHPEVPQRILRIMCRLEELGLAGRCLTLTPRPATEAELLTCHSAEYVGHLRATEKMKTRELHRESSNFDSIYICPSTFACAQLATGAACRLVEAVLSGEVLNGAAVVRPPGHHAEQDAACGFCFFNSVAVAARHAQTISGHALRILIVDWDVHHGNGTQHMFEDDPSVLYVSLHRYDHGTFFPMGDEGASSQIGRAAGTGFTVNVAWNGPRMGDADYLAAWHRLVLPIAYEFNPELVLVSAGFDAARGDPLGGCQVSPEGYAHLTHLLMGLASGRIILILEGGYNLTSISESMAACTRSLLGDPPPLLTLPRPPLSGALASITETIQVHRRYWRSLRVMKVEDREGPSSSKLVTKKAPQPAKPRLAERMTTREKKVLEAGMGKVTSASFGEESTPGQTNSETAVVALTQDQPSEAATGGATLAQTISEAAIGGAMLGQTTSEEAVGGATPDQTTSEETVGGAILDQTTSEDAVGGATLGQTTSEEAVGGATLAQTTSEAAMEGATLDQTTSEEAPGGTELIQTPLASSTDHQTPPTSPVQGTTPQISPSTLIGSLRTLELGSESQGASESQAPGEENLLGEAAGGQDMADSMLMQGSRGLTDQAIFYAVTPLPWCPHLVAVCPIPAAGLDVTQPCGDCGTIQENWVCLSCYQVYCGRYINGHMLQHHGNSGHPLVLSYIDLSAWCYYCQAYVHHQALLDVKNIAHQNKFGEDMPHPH
Assay: HDAC6 Enzyme Assay
Assay type: biochemical
Settings: compound concentration 0.37 μM, read-out: Percent Inhibition
Method in brief: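 Readout is AMC fluorescence (Ex 340 nm, Em 460 nm) after trypsin cleavage of the deacetylated Ac-Arg-Gly-Lys(Ac)-AMC product. Reaction: purified human HDAC6, compound or vehicle, 1 hour, 30° C, quenched by trichostatin A. Single-concentration percent inhibition or IC50 calculated versus DMSO-treated samples.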

SMILES | inhibition at 0.37 µM [%]
O=C(NO)c1ccc2ncn(Cc3cccc(-c4ccc(C(F)(F)F)cc4)c3)c(=O)c2c1 [Compound I-69, N-hydroxy-4-oxo-3-{[4′-(trifluoromethyl)biphenyl-3-yl]methyl}-3,4-dihydroquinazoline-6-carboxamide] | 82
O=C(NO)c1ccc2ncn(Cc3cccc(S(=O)(=O)c4ccccc4)c3)c(=O)c2c1 [Compound I-142, N-hydroxy-4-oxo-3-[3-(phenylsulfonyl)benzyl]-3,4-dihydroquinazoline-6-carboxamide] | 97.4
CC(=O)Nc1ccc(-c2cccc(Cn3cnc4ccc(C(=O)NO)cc4c3=O)c2)cc1 [Compound I-80, 3-{[4′-(acetylamino)biphenyl-3-yl]methyl}-N-hydroxy-4-oxo-3,4-dihydroquinazoline-6-carboxamide] | 86.7
CC(C)(C)OC(=O)N1CCC(C(CCn2ccc3ccc(C(=O)NO)cc3c2=O)c2ccc(Cl)cc2)CC1 (stereo not drawn) [Compound I-205, tert-butyl 4-{1-(4-chlorophenyl)-3-[7-[(hydroxyamino)carbonyl]-1-oxoisoquinolin-2(1H)-yl]propyl}piperidine-1-carboxylate] | 89.5
Cc1ncc(-c2nc3cc(C(=O)NO)ccc3c(=O)n2Cc2ccc(C(F)(F)F)cc2)n1C [Compound I-138, 2-(1,2-dimethyl-1H-imidazol-5-yl)-N-hydroxy-4-oxo-3-[4-(trifluoromethyl)benzyl]-3,4-dihydroquinazoline-7-carboxamide] | 80.2

Next, values leading:

inhibition at 0.37 µM [%] | SMILES
98.6 | Cn1cc(-c2cccc(Cn3ccc4ccc(C(=O)NO)cc4c3=O)c2)cn1 [Compound I-319, N-hydroxy-2-[3-(1-methyl-1H-pyrazol-4-yl)benzyl]-1-oxo-1,2-dihydroisoquinoline-7-carboxamide]
57.7 | O=C(NO)c1ccc2c(CO)cn(Cc3ccccc3)c(=O)c2c1 [Compound I-337, 2-benzyl-N-hydroxy-4-(hydroxymethyl)-1-oxo-1,2-dihydroisoquinoline-7-carboxamide]
72.5 | O=C(NO)c1ccc2ncn(CCc3cccc(-c4ccc(C(F)(F)F)cc4)c3)c(=O)c2c1 [Compound I-295, N-hydroxy-4-oxo-3-{2-[4′-(trifluoromethyl)biphenyl-3-yl]ethyl}-3,4-dihydroquinazoline-6-carboxamide]
80.8 | COc1ccc(-c2nc3cc(C(=O)NO)ccc3c(=O)[nH]2)cc1 [Compound I-395, N-hydroxy-2-(4-methoxyphenyl)-4-oxo-3,4-dihydroquinazoline-7-carboxamide]
96.3 | O=C(NO)c1ccc2ccn(-c3ccnc(NC(=O)C4CC4)c3)c(=O)c2c1 [Compound I-397, 2-{2-[(cyclopropylcarbonyl)amino]pyridin-4-yl}-N-hydroxy-1-oxo-1,2-dihydroisoquinoline-7-carboxamide]

Same assay, conditions: compound concentration 0.412 μM, read-out: Percent Inhibition

SMILES | inhibition at 0.412 µM [%]
CC1(C)CCC(C)(C)c2cc(Cn3ccc4ccc(C(=O)NO)cc4c3=O)ccc21 [Compound I-88, N-hydroxy-1-oxo-2-[(5,5,8,8-tetramethyl-5,6,7,8-tetrahydronaphthalen-2-yl)methyl]-1,2-dihydroisoquinoline-7-carboxamide] | 90
O=C(NO)c1ccc2ccn(CCc3c[nH]c4ccccc34)c(=O)c2c1 [Compound I-152, N-hydroxy-2-[2-(1H-indol-3-yl)ethyl]-1-oxo-1,2-dihydroisoquinoline-7-carboxamide] | 96
O=C(NO)c1ccc2ccn(CC3CCNCC3)c(=O)c2c1 [Compound I-2, N-hydroxy-1-oxo-2-(piperidin-4-ylmethyl)-1,2-dihydroisoquinoline-7-carboxamide] | 82.2
COc1ccc(Nc2nc3ccc(C(=O)NO)cc3c(=O)n2C)cc1 [Compound I-70, N-hydroxy-2-[(4-methoxyphenyl)amino]-3-methyl-4-oxo-3,4-dihydroquinazoline-6-carboxamide] | 46.7
O=C(NO)c1ccc2c(=O)[nH]c(COc3ccccc3-n3cccc3)nc2c1 [Compound I-233, N-hydroxy-4-oxo-2-{[2-(1H-pyrrol-1-yl)phenoxy]methyl}-3,4-dihydroquinazoline-7-carboxamide] | 91.1
O=C(NO)c1ccc2ccn(CCNc3cccc(-n4cccn4)c3)c(=O)c2c1 [Compound I-108, N-hydroxy-1-oxo-2-(2-{[3-(1H-pyrazol-1-yl)phenyl]amino}ethyl)-1,2-dihydroisoquinoline-7-carboxamide] | 91.4
O=C(NO)c1ccc2ccn(CCO)c(=O)c2c1 [Compound I-158, N-hydroxy-2-(2-hydroxyethyl)-1-oxo-1,2-dihydroisoquinoline-7-carboxamide] | 72.5
CC(C)(C)c1ccc(Cn2cnc3cc(C(=O)NO)ccc3c2=O)cc1 [Compound I-87, 3-(4-tert-butylbenzyl)-N-hydroxy-4-oxo-3,4-dihydroquinazoline-7-carboxamide] | 91
COc1ccccc1OCCn1ccc2ccc(C(=O)NO)cc2c1=O [Compound I-48, N-hydroxy-2-[2-(2-methoxyphenoxy)ethyl]-1-oxo-1,2-dihydroisoquinoline-7-carboxamide] | 97
O=C(NO)c1ccc2ccn(Cc3c(F)c(F)c(F)c(F)c3F)c(=O)c2c1 [Compound I-65, N-hydroxy-1-oxo-2-(pentafluorobenzyl)-1,2-dihydroisoquinoline-7-carboxamide] | 93
CC(C)(C)OC(=O)N1CCC(NC(=O)c2nc3cc(C(=O)NO)ccc3c(=O)[nH]2)CC1 [Compound I-241, tert-butyl 4-[({7-[(hydroxyamino)carbonyl]-4-oxo-3,4-dihydroquinazolin-2-yl}carbonyl)amino]piperidine-1-carboxylate] | 29.8
CCOCCn1ccc2ccc(C(=O)NO)cc2c1=O [Compound I-218, 2-(2-ethoxyethyl)-N-hydroxy-1-oxo-1,2-dihydroisoquinoline-7-carboxamide] | 90.4
O=C(NO)c1ccc2ncn(CCCc3ccccc3)c(=O)c2c1 [Compound I-239, N-hydroxy-4-oxo-3-(3-phenylpropyl)-3,4-dihydroquinazoline-6-carboxamide] | 93.8
O=C(NO)c1ccc2ccn(CCCCOc3ccccc3)c(=O)c2c1 [Compound I-62, N-hydroxy-1-oxo-2-(4-phenoxybutyl)-1,2-dihydroisoquinoline-7-carboxamide] | 98

Now from value to compound:

inhibition at 0.412 µM [%] | SMILES
73.2 | O=C(NO)c1ccc2c(=O)[nH]c(-c3cccc(C(F)(F)F)c3)nc2c1 [Compound I-260, N-hydroxy-4-oxo-2-[3-(trifluoromethyl)phenyl]-3,4-dihydroquinazoline-7-carboxamide]
77 | NC(=O)CCn1ccc2ccc(C(=O)NO)cc2c1=O [Compound I-250, 2-(3-amino-3-oxopropyl)-N-hydroxy-1-oxo-1,2-dihydroisoquinoline-7-carboxamide]
96.7 | O=C(NO)c1ccc2ccn(Cc3ccc(-n4cccn4)cc3)c(=O)c2c1 [Compound I-289, N-hydroxy-1-oxo-2-[4-(1H-pyrazol-1-yl)benzyl]-1,2-dihydroisoquinoline-7-carboxamide]
96.1 | Cc1onc(-c2ccccc2)c1Cn1ccc2ccc(C(=O)NO)cc2c1=O [Compound I-259, N-hydroxy-2-[(5-methyl-3-phenylisoxazol-4-yl)methyl]-1-oxo-1,2-dihydroisoquinoline-7-carboxamide]
87.9 | CC(C)(C)OC(=O)Nc1cccc(Cn2ccc3ccc(C(=O)NO)cc3c2=O)c1 [Compound I-266, tert-butyl (3-{[7-[(hydroxyamino)carbonyl]-1-oxoisoquinolin-2(1H)-yl]methyl}phenyl)carbamate]
68.2 | O=C(NO)c1ccc2c(=O)n(-c3ccc(Cl)cc3)c(NCc3ccc(Cl)cc3)nc2c1 [Compound I-262, 2-[(4-chlorobenzyl)amino]-3-(4-chlorophenyl)-N-hydroxy-4-oxo-3,4-dihydroquinazoline-7-carboxamide]
